Results published in patent US9284297B2, “Halofuginone analogs for inhibition of tRNA synthetases and uses thereof” (President and Fellows of Harvard College, priority 2008, dated 2016).
Where two headings read alike, the source gives them in different places.

Legend:
[1] = system: CD4+ CD25− T cells (Th1, Th2, iTreg differentiation, proliferation, CD25), CD8+ T cells, B cells; experiment: T and B cell activation, proliferation and Th1, Th2, iTreg differentiation; format: cell-based, murine
Experimental: Cytokines secreted into media supernatant were measured using the mouse Th1/Th2 cytometric bead array (CBA—BD Pharmingen) in accordance with manufacturers instructions.

[2] = system: Human primary dermal fibroblasts; experiment: Inhibition of cell spreading in a fibroblast model; format: cell-based; parameters: key: “+++” vs. “++” vs. “+” in general denotes ˜4-fold differences in potency; “+++” vs. “++” vs. “+” in general denotes ˜4-fold differences in potency; “+++” vs. “++” vs. “+” in general denotes ˜4-fold differences in potency; “−” denotes no activity at any dose tested, up to 1000× the effective dose of halofuginone; conditions: spreading of cells assessed by light microscopy 28 hours after treatment
Experimental: The ability of halofuginone and analogs thereof to inhibit the spreading of freshly plated primary dermal fibroblasts was examined. Human primary dermal fibroblasts were replated and halofuginone added immediately after replating; spreading of cells was assessed by light microscopy 28 hours after treatment with compound. “+++” vs. “++” vs. “+” in general denotes ˜4-fold differences in potency. “−” denotes no activity at any dose tested, up to 1000× the effective dose of halofuginone.

[3] = system: Th17 differentiation of CD4+ CD25− T cells; experiment: Th17 differentiation of CD4+ CD25− T cells (IL-17+ IFNγ− cells, intracellular cytokine staining)
Experimental: Purified CD4^+ CD25^− T cells were activated in vitro as previously described (Djuretic et al., Nat. Immunol. 8:145, 2007) using 0.3 μg/ml hamster anti-mouse CD3 (clone 145-2C11) (ATCC, Manassas, Va.) and 0.5 μg/ml hamster anti-mouse CD28 (BD Pharmingen, San Jose, Calif.). Activated cell cultures were differentiated using the following combinations of cytokines and antibodies: iTreg—recombinant human TGFβ1 (3 ng/ml—R&D systems, Minneapolis, Minn.), Th17-TGFβ1 (3 ng/ml) plus recombinant mouse IL-6 (30 ng/ml—R&D systems). […] Human IL-2 supernatant (National Cancer Institute) was used in culture at 0.01 U/ml and was added at 48 hours-post activation when T cells were split into tissue culture wells lacking CD3 and CD28 antibodies, with the exception of Th17 cultures that were maintained in the absence of exogenous IL-2. […] All reagents (see below) were added at the time of T cell activation and again at 48 hours post activation unless indicated otherwise.
For detection of intracellular cytokines in murine cells, cultured T or B cells were stimulated with 10 nM PMA (Sigma) and 1 mM ionomycin (Sigma) for 4-5 hours in the presence of 10 mM brefeldin A (Sigma). Stimulated cells were harvested, washed with PBS and fixed with PBS plus 4% paraformaldehyde at room temperature for 20 minutes. Cells were then washed with PBS, permeabilized with PBS supplemented with 1% BSA and 0.5% saponin (Sigma) at room temperature for 10 minutes before cytokine-specific antibodies were added and incubated with cells for an additional 20 minutes at room temperature. […] All stained cells were stored at 4° C. in PBS plus 1% paraformaldehyde prior to FACS analyses.
All cell surface staining was performed in FACS buffer (PBS/2% FBS/0.1% NaN3) and antibodies were incubated with cells on ice for 20-30 minutes. Cells were washed with FACS buffer and fixed with FACS buffer plus 1% paraformaldehyde prior to data acquisition.

[4] = target: T1, methionyl tRNA synthetase (Oryctolagus cuniculus, UniProt G1SSX5); experiment: Incorporation of 35S-labeled methionine into tRNA in rabbit reticulocyte lysate; format: biochemical; conditions: crude in vitro translation system
T1 construct: from tissue; host or cells: rabbit reticulocyte lysate
T1 sequence (G1SSX5 1-900): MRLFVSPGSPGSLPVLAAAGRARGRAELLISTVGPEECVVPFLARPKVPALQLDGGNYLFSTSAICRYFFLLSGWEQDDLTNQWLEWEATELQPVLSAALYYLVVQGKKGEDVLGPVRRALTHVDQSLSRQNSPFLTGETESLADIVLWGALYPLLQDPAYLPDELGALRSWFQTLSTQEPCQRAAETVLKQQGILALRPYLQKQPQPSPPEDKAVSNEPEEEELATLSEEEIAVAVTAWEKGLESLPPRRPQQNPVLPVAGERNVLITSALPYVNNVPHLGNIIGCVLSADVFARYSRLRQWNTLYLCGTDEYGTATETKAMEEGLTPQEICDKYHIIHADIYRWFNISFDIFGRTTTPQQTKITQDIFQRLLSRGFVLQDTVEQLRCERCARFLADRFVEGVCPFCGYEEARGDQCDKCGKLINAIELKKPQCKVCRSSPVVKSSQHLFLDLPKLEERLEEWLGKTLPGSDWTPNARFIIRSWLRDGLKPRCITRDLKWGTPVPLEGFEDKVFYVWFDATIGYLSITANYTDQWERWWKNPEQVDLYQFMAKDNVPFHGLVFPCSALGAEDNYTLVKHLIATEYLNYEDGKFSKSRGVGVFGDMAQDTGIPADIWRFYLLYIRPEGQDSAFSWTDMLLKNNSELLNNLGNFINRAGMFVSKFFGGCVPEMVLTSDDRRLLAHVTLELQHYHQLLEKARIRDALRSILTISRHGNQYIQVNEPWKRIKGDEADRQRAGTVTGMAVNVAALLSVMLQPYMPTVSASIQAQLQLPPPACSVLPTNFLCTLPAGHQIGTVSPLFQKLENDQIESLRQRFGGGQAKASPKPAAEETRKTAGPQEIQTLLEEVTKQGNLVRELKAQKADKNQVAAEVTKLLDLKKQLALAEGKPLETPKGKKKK
Experimental: Total RNA was extracted with acidic phenol-chloroform and tRNA was isolated using miRVANA microRNA isolation kit. Radioisotope incorporation into tRNA was measured in a scintillation counter.

[5] = system: eIF2α phosphorylation and ATF4 protein levels in CD4+ CD25− T cells; experiment: Amino acid response (AAR) pathway activation in T cells, western blot; format: cell-based, mice
Experimental: CD4+ CD25− T cells purified from wild type of GCN2−/− mice were activated through TCR for 4 hours in the presence of halofuginone (10 nM) or 9 (MAZ1310, 10 nM). Whole cell lysates were analyzed by SDS PAGE/Western blot and antibodies indicated.
Naïve T-cells were treated to stimulate the T-cell receptor (TCR) in the presence or absence of 10 nM halofuginone in the presence of 1 mM added amino acid, and then assayed for eIF2alpha activity phosphorylation by SDS PAGE/Western blot.
HF induced detectable eIF2α phosphorylation at 2.5 nM, and this effect plateaued at 5-10 nM HF (FIG. 7D). […] AAR activation was a general consequence of HF treatment; HF induced eIF2α phosphorylation, not only in T cells activated in Th17-priming conditions, but also in resting naïve T cells and T cells activated in ThN, Th1, Th2, and iTreg polarizing conditions (FIG. 7F). […] Thus, the rapid activation of the AAR pathway by HF could underlie both its selective inhibition of Th17 differentiation and its effects on fibroblasts (Pines and Nagler, Gen. Pharmacol. 30:445, 1998).
To delineate the stress response pathway activated by HF, the effects of amino acid starvation with those of tunicamycin (an inducer of ER stress) or HF treatment during T cell activation were compared.
Whole cell lysates were generated from T cells activated for the indicated times. For STAT3 and Smad2/3 western blots cells were harvested, washed in PBS and lysed in 50 mM Tris, pH 7.4, 0.1% SDS, 1% Triton-X100, 140 mM NaCl, 1 mM EDTA, 1 mM EGTA supplemented with protease inhibitors tablets (Roche, Germany), 1 mM NaF and 1 mM Na3VO4. For eIF2α and ATF4 western blots, cells were harvested as above and lysed in 50 mM Tris, pH 7.4, 2% SDS, 20% glycerol and 2 mM EDTA supplemented with protease and phosphatase inhibitors as above. All lysates were cleared via centrifugation and 15-30 μg of protein was resolved by SDS-PAGE. Protein was transferred to nitrocellulose membranes, blocked and blotted using specific antibodies. Antibodies used for western blot analysis were anti-phospho-Smad2, anti-STAT3 (pY705), anti-STAT3, anti-eIF2α^pS51, anti-eIF2α (all from Cell Signaling Technology, Danvers, Mass.). Anti-ATF4/CREB2 and anti-β-actin were purchased from Santa Cruz Biotechnology (Santa Cruz, Calif.). HRP-conjugated secondary antibodies were all purchased from Sigma, with the exception of HRP-conjugated anti-armenian hamster antibody (Jackson Immunoresearch, West Grove, Pa.).

[6] = system: Th17 differentiation of CD4+ CD25− T cells; conditions: read-out: 50% inhibition of IL-17 expressing cell (Th17) development; cited from earlier work

**Q.** What does the source list for `O=C(CC1NCCCC1O)Cn1cnc2cc(Br)c(Cl)cc2c1=O` (stereo not drawn) [Compound 1, 7-bromo-6-chloro-3-[3-(3-hydroxy-2-piperidinyl)-2-oxopropyl]-4(3H)-quinazolinone]?
**A.** concentration inducing general inhibition of T and B cell activation, proliferation, and effector function [1]: > 20 nM; effect on T cell proliferation, CD25 upregulation, IL-2, TNF, IFNγ production ([1]; 1-10 nM): did not affect T cell proliferation, CD25 upregulation, or production of IL-2, TNF, or IFNγ; effect on Th1, Th2, iTreg differentiation ([1]; polarizing cytokine conditions, IFNγ, IL-4, Foxp3 expression): failed to modulate Th1, Th2 or iTreg differentiation; Fibroblast inhibition [2]: +++; rescue of inhibited Th17 differentiation by added amino acids ([3]; 10 nM halofuginone, 1 mM of the indicated amino acids): Proline, and no other added amino acid, rescues the inhibition of Th17 differentiation; IC50 ([3]; Mus musculus, T-cell, 96 h, read-out: IC50, Th17 differentiation): 3.6 nM; inhibition of 35S methionine incorporation into tRNA [4]: not a different tRNA synthetase (methionyl tRNA synthetase); time to maximum eIF2α phosphorylation ([5]; 10 nM HF): ≤ 2 h; rescue of eIF2alpha phosphorylation by added amino acid ([5]; 10 nM halofuginone, 1 mM added amino acid): blocked by added proline; phosphorylation of Ser51 of eIF2alpha, GCN2 dependence ([5]; 10 nM, 4 hours, T cells from wild type or GCN2−/− mice): leads to phosphorylation of Ser51 of eif2alpha only in wild type cells and not in GCN2−/− cells; concentration at which eIF2α phosphorylation plateaued ([5]; 4 hours-post TCR activation): 5 to 10 nM; concentration inducing detectable eIF2α phosphorylation ([5]; 4 hours-post TCR activation): 2.5 nM; concentration with highest ATF4 expression levels ([5]; 4 hours-post TCR activation): 5 to 10 nM; stress response pathway: eIF2α phosphorylation, ATF4 expression, Xbp-1 splicing ([5]; 4 hours, 10 nM HF or 1 μg/ml tunicamycin): inducing eIF2α phosphorylation without promoting Xbp-1 splicing; IC50 [6]: ~3 nM
